# Data as given in US20130096321A1, “CRYSTALLINE ROTIGOTINE BASE AND PREPARATION PROCESS THEREFOR” (CHEMAGIS LTD., priority 2007, published 2013).
# Assay: Thermogravimetric analysis (TGA) of rotigotine base crystalline Form I
# Type: physicochemical
# Details: platinum baskets, heating rate 5° C./minute, FIG. 4
# Description: Rotigotine base crystalline form I produces a TGA curve as depicted in FIG. 4. […] The TGA measurement was performed using a TA instruments Q500 Thermal analyzer with Universal Software (version 3.88). Samples were analyzed inside platinum baskets at heating rate of 5° C./minute.
smiles,measurement,value
"CCCN(CCc1cccs1)[C@H]1CCc2c(O)cccc2C1 [crystalline rotigotine base Form I, (S)-(−)-5-hydroxy-2-(N-n-propyl-N-2-thienylethyl)-aminotetralin]",decomposition on heating (from TGA curve),does not decompose on heating
same,thermal stability (from TGA curve),thermally stable
